The results in this text go back to article PMC7766104, “Inhibition of Biofilm Formation by Modified Oxylipins from the Shipworm Symbiont Teredinibacter turnerae” (Marine Drugs, 2020).

≈ marks a conversion by molar mass, not a printed value. Entries after “also recorded” stand apart in the source; their conditions may differ. Bounds are passed on as bounds.

For data set [1], the system named is S. epidermidis RP62A (ATCC 35984) biofilm formation. The data set can be described thus: Biofilm inhibition assay (WGA488 staining of formed biofilm). The class given is cell-based, Staphylococcus epidermidis. The settings on record: for Selectivity Index (MICPlanktonic/MBICBiofilm): S. epidermidis RP62A, MIC planktonic / MBIC biofilm; for MBIC S. epidermidis RP62A (ATCC 35984): lowest concentration causing >98% inhibition of biofilm formation, two independent trials in quadruplicates. The source says: (§1) All seven compounds were subjected to a panel of bioactivity assays to assess their effects on staphylococcal pathogens and mammalian cells (Table 2). […] This fluorescent stain specifically binds to sialic acid and the N-acetylglucosaminyl residues of the biofilm. […] Growth inhibition in the microbial pathogens was quantified by monitoring the conversion of resazurin to the fluorescent resorufin product.
(§2) The biofilm inhibition assay was done according to the method of Skogman et al. (2012). […] A single colony from the CRA plate was transferred in 50 mL trypticasein soy broth supplemented with glucose (TSBg) and grown overnight at 35 °C, 150 rpm. The turbidity of the culture was adjusted to match the 0.5 McFarland standard (1 × 10^8 cells/mL) and diluted 100-fold prior to inoculation in a 96-well plate. […] TSBg served as the negative control, and positive controls were chloramphenicol (Sigma-Aldrich) for planktonic cells and dispersin B (Kane Biotech) for biofilms. Dispersin B is a 40 kDa glycoside hydrolase which dissolves mature bacterial biofilms. The plates were incubated for 20 h at 37 °C without shaking to facilitate biofilm formation. At the end of the incubation period, the planktonic suspension was transferred to another 96-well plate to assess cell viability. A 20 µL-aliquot of 0.02% resazurin was added to each well and incubated for 30 min at 37 °C, 150 rpm. Fluorescence was measured using a 530 nm excitation filter and a 590 nm emission filter. To quantify the formed biofilm, 100 µL-aliquot of wheat germ agglutinin Alexa Fluor 488 (WGA488) probe (50 µg/mL) was added to each well of the original plate and incubated in the dark at 4 °C for 5 h. At the end of incubation, the plate was washed with sterile PBS (3×) and air-dried at room temperature to remove the unbound WGA488 probe. Bound stain to the biofilm was dissolved in 33% glacial acetic acid and quantified by fluorescence measurement at 485 nm/420 nm excitation filters, and 528 nm/520 nm emission filters. […] This was done in two independent trials with four independent replicates.

Data set [2] relates to MDCK NBL-2 (ATCC CCL-34) cells. The data set can be described thus: cells. Particulars: for IC50: Canis lupus familiaris, MDCK, 72 h, read-out: IC50 MDCK NBL-2 (ATCC CCL-34).
Source text: as §1
The mammalian antiproliferative assay was done according to Lacerna et al. (2019) and modified from the method of Mossman (1983). […] At 72 h post-incubation, the cells were treated with MTT and the absorbance at 570 nm was read. The IC50 was calculated using GraphPad Prism 5 based on a 4-point sigmoidal non-linear regression analysis of cell viability vs. log concentration of the inhibitor. The assay was done in two independent trials with four independent replicates.

Data set [3] concerns Methicillin-resistant S. aureus (ATCC 43300). The data set can be described thus: Antimicrobial microdilution assay (resazurin). It counts as cell-based. The settings on record: Staphylococcus aureus; planktonic; >98% growth inhibition; 24 h; read-out: MIC Methicillin-Resistant S. aureus (ATCC 43,300). Here is the method: as §1
(§3) After 24 h of incubation, 0.02% resazurin (20 µL) was added to each well, and the fluorescence was measured at 530 nm excitation and 590 nm emission. MIC is the lowest concentration at which there was no reduction of the rezasurin dye, equivalent to 98% inhibition of microbial growth. Assays were done in two independent trials with four independent replicates.

The subject of another data set is S. aureus (ATCC 6538). In words: Antimicrobial microdilution assay (resazurin). It counts as cell-based. The settings on record: Staphylococcus aureus, ATCC6538; planktonic; >98% growth inhibition; 24 h. Here is the method:
as §1, §3
For orientation: Broth dilution looks for growth in wells or tubes with falling amounts of substance.

For data set [4], the system named is planktonic S. epidermidis RP62A (ATCC 35984). In words: Planktonic cell viability, resazurin (from biofilm assay plate). The class given is cell-based, Staphylococcus epidermidis. Particulars: for MIC: Staphylococcus epidermidis, ATCC35984, planktonic cells, lowest concentration with >98% growth inhibition; for bioactivity against microbial pathogens or mammalian cells (in words): statement covers the whole panel of Table 2 (staphylococcal pathogens and MDCK cells).
Source text: as §1, §2
(In general: The colour change of resazurin is a common sign of viable cells or microbes.)

One may read the IC50 as the point on the concentration scale where inhibition reaches its midpoint. For `CCCCCC1OC1C(O)CCCCCCCCCC(=O)O` (stereo not shown) [Compound 1, 11-hydroxy-12,13-epoxy-octadecanoic acid], in data set [1], the “inhibition of biofilm formation in S. epidermidis (in words)” value (“inhibition of biofilm formation” for short) is on record as “inhibited biofilm formation”, the “Selectivity Index (MICPlanktonic/MBICBiofilm)” value is reported as approximately 4 and the “MBIC S. epidermidis RP62A (ATCC 35984)” value amounted to 32 µg/mL. In data set [2], the IC50 came out at 61.7 µg/mL (≈ 196 µM). In addition, the MIC in data set [3] was more than 128 µg/mL. This compound also registered an MIC with S. aureus (ATCC 6538) of more than 128 µg/mL. Moreover, the MIC in data set [4] turned out to be 128 µg/mL (≈ 407 µM).
Turning to `CCCCC/C=C/C(=O)CCCCCCCC(=O)O` [Compound 2, (E)-9-oxohexadec-10-enoic acid], the “inhibition of biofilm formation” value in data set [1] is “inhibited biofilm formation”. The “Selectivity Index (MICPlanktonic/MBICBiofilm)” value in data set [1] is listed as approximately 1. Moreover, in data set [2], the IC50 was 33 µg/mL (≈ 123 µM). Moreover, the MIC (in data set [3]; against S. aureus (ATCC 6538); in data set [4]) was more than 128 µg/mL each time.
As for `CCCCC/C=C/C(=O)CCCCCCCCCC(=O)O` [Compound 3, (E)-11-oxooctadec-12-enoic acid], in data set [1], the “inhibition of biofilm formation” value is given as “inhibited biofilm formation; also recorded: potent but non-selective activity”, the “Selectivity Index (MICPlanktonic/MBICBiofilm)” value is approximately 1 and the “MBIC S. epidermidis RP62A (ATCC 35984)” value is listed as 16 µg/mL. Besides, in data set [2], the “cytotoxicity / antiproliferative action in mammalian MDCK cells (in words)” value (“cytotoxicity / antiproliferative action” below) was “demonstrated cytotoxicity” and the IC50 turned out to be 13.6 µg/mL (≈ 45.9 µM). Also, in data set [3], the MIC was more than 128 µg/mL. This compound also returned an MIC with S. aureus (ATCC 6538) of more than 128 µg/mL. Also, in data set [4], the “antimicrobial activity against planktonic S. epidermidis (in words)” value is on record as “showed antimicrobial activity” and the MIC turned out to be 16 µg/mL (≈ 54 µM).
On to `CCCCCCCCCCCCCCCC(=O)O` [Compound 4, palmitic acid], for which, in data set [1], the “Selectivity Index (MICPlanktonic/MBICBiofilm)” value is recorded as approximately 1 and the “MBIC S. epidermidis RP62A (ATCC 35984)” value is listed as more than 128 µg/mL. In addition, in data set [2], the “cytotoxicity / antiproliferative action” value was “cytotoxic activity” and the concentration for half-maximal inhibition (IC50) is more than 128 µg/mL. In data set [3], the MIC is more than 128 µg/mL. Besides, in the data set on S. aureus (ATCC 6538), the MIC is more than 128 µg/mL. For the same compound, in data set [4], the MIC was more than 128 µg/mL and the “bioactivity against microbial pathogens or mammalian cells (in words)” value was “did not show any significant bioactivity”.
Take `CCCCCCCCCCCCCCCCCC(=O)O` [Compound 5, stearic acid]: the “Selectivity Index (MICPlanktonic/MBICBiofilm)” value in data set [1] was approximately 1. Also, the “MBIC S. epidermidis RP62A (ATCC 35984)” value in data set [1] was more than 128 µg/mL. In data set [2], the IC50 was more than 128 µg/mL. Besides, the MIC (in data set [3]; against S. aureus (ATCC 6538); in data set [4]) was more than 128 µg/mL throughout. Also, in data set [4], the “bioactivity against microbial pathogens or mammalian cells (in words)” value is “did not show any significant bioactivity”.
Consider `CCCCC[C@@H]1O[C@H]1CCCCCCCCCCC(=O)O` [Compound 6, trans-12,13-epoxy-octadecanoic acid], for which, in data set [1], the “inhibition of biofilm formation” value was “inhibited biofilm formation”, the “Selectivity Index (MICPlanktonic/MBICBiofilm)” value is on record as more than 8 and the “MBIC S. epidermidis RP62A (ATCC 35984)” value is given as 16 µg/mL. Further, in data set [2], the “cytotoxicity / antiproliferative action” value is reported as “no antiproliferative action” and the IC50 is more than 128 µg/mL. In data set [3], the MIC is more than 128 µg/mL. The compound further displayed an MIC against S. aureus (ATCC 6538) of more than 128 µg/mL. In data set [4], the MIC is more than 128 µg/mL.
`CCCCC/C=C\CCCCCCCCCCC(=O)O` [Compound 7, 12(Z)-octadecenoic acid]: the “MBIC S. epidermidis RP62A (ATCC 35984)” value in data set [1] is given as more than 128 µg/mL.
With `O=C(N[C@H](CO)[C@H](O)c1ccc([N+](=O)[O-])cc1)C(Cl)Cl` [chloramphenicol], the MIC in data set [4] is 8 µg/mL (≈ 24.8 µM).
For `Cc1onc(-c2ccccc2)c1C(=O)N[C@@H]1C(=O)N2[C@@H]1SC(C)(C)[C@@H]2C(=O)O` [oxacillin], the MIC in data set [3] was found to be 8 µg/mL (≈ 19.9 µM); in the data set on S. aureus (ATCC 6538) it was 0.5 µg/mL (≈ 1.25 µM).
